Laboratory results taken from PubChem BioAssay AID1017 (Sanford-Burnham Center for Chemical Genomics, 2008).
“And” between values parts separate entries of the source, which are not always exact repeats. Equal values may be shown once.

Target: Intestinal-type alkaline phosphatase (Homo sapiens) (UniProt P09923)
Experiment: inhibition of intestinal alkaline phosphatase – biochemical, luminescence, dose response (AID 1017)
Conditions: purified human IAP, luminescent substrate

Sequence of Intestinal-type alkaline phosphatase (Homo sapiens) (P09923 whole entry, looked up): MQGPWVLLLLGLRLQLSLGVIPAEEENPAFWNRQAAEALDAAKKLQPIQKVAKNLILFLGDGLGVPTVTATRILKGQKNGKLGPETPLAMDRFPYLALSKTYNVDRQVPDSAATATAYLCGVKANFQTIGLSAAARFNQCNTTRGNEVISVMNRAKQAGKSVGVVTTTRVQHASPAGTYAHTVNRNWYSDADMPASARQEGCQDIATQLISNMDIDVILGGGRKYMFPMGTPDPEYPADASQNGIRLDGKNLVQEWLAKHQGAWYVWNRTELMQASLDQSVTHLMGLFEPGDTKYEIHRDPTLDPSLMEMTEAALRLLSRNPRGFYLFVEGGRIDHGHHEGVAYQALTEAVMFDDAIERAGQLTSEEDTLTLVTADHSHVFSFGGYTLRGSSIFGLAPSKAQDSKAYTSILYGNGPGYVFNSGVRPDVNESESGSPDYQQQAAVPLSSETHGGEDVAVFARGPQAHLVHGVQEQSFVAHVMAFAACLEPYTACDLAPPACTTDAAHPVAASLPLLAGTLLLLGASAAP

Structure (SMILES) | IC50
O=C1C2CC=CCC2C(=O)N1c1n[nH]c(Cc2ccccc2)n1 (stereo not drawn) | 539 nM and 922 nM
Oc1ccc(CCN=Cc2c(O)[nH]c3ccccc23)cc1O | 9950 nM
O=C1C2CC=CCC2C(=O)N1c1n[nH]c(-c2ccccc2)n1 (stereo not drawn) | 110 nM and 157 nM
